Results on three compounds are retold here after paper PMC2655291 (BMC Structural Biology, 2009).

The pIC50 is the IC50 on a negative log10 scale, so that one unit is a factor of ten. Read a low pIC50 as a high IC50. What is called stoichiometry N is a count of units in the complex or per binding partner.

Experiment [1] has as its target T1, quinone reductase 2 (NQO2) (Homo sapiens, UniProt P16083).
T1 sequence (P16083 1-231): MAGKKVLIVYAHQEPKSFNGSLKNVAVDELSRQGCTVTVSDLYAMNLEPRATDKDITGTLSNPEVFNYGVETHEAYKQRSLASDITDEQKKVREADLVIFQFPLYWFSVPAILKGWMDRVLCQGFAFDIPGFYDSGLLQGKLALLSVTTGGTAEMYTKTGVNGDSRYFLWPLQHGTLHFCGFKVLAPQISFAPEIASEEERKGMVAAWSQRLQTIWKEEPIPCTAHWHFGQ

Experiment [2] deals with T1, quinone reductase 2 (NQO2). This is another data set of the same source.
The target of the next experiment is NQO2 S16D mutant (human). As to the kind of experiment: SEC; analytical gel filtration of the purified mutant (data not shown); monomer and dimer. (In general: Size exclusion chromatography separates by hydrodynamic size, large species first.)

pIC50: −log10 of the molar value. Where two headings read alike, the source gives them in different places.

In the case of `Cc1cn(-c2cc(NC(=O)c3ccc(C)c(Nc4nccc(-c5cccnc5)n4)c3)cc(C(F)(F)F)c2)cn1` [nilotinib], in experiment [1], the negative logarithm of the IC50 (pIC50) was 6.42. In experiment [2], `O=c1c(O)c(-c2ccc(O)c(O)c2)oc2cc(O)cc(O)c12` [quercetin] showed a pIC50 of 7.38. In the experiment with NQO2 S16D mutant (human), NQO2 S16D mutant (enzyme) returned a stoichiometry N of 2.
